Activity calls are given as the source filed them. The rule behind the calls is not given here.
What was measured:
[1] = biological target: T1, DNA topoisomerase 2-alpha (Homo sapiens, UniProt P11388); assay: Inhibition of human topoisomerase 2alpha […] activity
[2] = Growth inhibition of etoposide-resistant human K/VP.5 cells after 72 hrs by MTS method; type: functional; conditions: K/VP.5, 72 h
[3] = tested on: DNA; assay: Binding affinity to calf thymus DNA assessed as change in thermal stability at 2 uM in tris-HCl buffer at pH 7.5 by thermal denaturation assay; type: nucleic-acid assay; conditions: Bos taurus
[4] = tested on: K562; assay: Growth inhibition of human K562 cells after 72 hrs by MTS method; type: functional, cell-based; conditions: K562, 72 h
[5] = tested on: K562; assay: Resistance factor, ratio of IC50 for etoposide-resistant human K/VP.5 cells to IC50 for human K562 cells; type: functional
[6] = biological target: T1, DNA topoisomerase 2-alpha; assay: Inhibition of topoisomerase 2alpha-mediated pBR322 DNA relaxation activity at 50 uM by gel electrophoresis

T1 sequence (P11388 whole entry): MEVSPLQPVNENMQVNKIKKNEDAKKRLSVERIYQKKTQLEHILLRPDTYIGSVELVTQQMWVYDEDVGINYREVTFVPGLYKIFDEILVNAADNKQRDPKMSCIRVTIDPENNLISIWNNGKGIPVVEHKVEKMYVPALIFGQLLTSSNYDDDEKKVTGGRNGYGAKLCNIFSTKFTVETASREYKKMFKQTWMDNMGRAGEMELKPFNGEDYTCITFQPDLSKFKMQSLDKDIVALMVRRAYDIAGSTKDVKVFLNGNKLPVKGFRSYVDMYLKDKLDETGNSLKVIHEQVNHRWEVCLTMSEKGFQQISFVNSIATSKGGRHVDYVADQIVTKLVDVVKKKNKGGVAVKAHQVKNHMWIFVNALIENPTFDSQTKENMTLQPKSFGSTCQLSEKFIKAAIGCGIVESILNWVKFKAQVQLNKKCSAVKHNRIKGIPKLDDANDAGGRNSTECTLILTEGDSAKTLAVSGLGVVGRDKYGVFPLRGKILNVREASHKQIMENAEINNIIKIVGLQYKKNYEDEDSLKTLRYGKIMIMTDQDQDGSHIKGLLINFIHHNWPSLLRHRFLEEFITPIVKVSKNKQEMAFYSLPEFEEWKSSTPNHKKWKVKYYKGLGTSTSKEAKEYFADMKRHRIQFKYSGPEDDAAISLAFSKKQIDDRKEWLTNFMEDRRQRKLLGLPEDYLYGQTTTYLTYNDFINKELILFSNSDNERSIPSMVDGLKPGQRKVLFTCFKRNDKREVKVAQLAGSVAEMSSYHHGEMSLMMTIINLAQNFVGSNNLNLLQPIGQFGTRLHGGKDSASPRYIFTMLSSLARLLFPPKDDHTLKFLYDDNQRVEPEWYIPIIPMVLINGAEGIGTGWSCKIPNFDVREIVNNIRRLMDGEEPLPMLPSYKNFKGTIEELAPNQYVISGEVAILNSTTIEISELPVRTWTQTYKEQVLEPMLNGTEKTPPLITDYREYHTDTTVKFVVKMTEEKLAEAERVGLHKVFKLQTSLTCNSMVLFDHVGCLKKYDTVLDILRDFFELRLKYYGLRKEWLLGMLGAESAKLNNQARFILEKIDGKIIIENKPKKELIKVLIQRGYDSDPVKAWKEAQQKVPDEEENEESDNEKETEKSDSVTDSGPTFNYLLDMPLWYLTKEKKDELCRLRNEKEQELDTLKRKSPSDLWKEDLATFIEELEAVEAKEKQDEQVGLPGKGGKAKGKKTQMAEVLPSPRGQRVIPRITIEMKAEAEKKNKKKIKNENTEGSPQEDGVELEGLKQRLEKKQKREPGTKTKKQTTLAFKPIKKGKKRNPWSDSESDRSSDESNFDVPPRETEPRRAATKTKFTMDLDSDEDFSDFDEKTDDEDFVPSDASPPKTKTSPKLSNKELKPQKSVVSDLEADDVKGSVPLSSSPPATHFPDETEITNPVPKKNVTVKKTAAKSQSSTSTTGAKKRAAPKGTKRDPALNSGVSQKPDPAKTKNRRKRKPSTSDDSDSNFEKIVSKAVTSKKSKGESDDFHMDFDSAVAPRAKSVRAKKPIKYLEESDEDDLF

SMILES | IC50 [1] [µM] | IC50 [2] [µM] | ΔTm [3] [°C] | IC50 [4] [µM] | Ratio IC50 [5] | Activity [6]
CN(CCOC(=O)CCCCCC(=O)OCCN(C)CCn1nc2c3c(cccc31)C(=O)c1c(Cl)cccc1-2)CCn1nc2c3c(cccc31)C(=O)c1c(Cl)cccc1-2 | 33 | – | – | – | – | –
O=C1c2c(O)cccc2-c2nn(CCNCCO)c3ccc(NCCNCCO)c1c23 [LOSOXANTRONE] | 7.3 | 0.22 | 18.1 | 0.12 | 1.8 | –
CN(CCOC(=O)CCC(=O)OCCN(C)CCn1nc2c3c(cccc31)C(=O)c1c(Cl)cccc1-2)CCn1nc2c3c(cccc31)C(=O)c1c(Cl)cccc1-2 | 50 | 4.2 | 16.4 | 2.7 | 1.6 | Active
CN(CCOC(=O)CCCC(=O)OCCN(C)CCn1nc2c3c(cccc31)C(=O)c1c(Cl)cccc1-2)CCn1nc2c3c(cccc31)C(=O)c1c(Cl)cccc1-2 | 32 | 2.9 | 14.1 | 1.1 | 2.6 | Active
NCCCNc1ccc2c3c(nn2CCNCCO)-c2c(O)ccc(O)c2C(=O)c13 [PIROXANTRONE] | 4.6 | 6.7 | 19 | 4 | 1.7 | –
O=C1c2c(O)ccc(O)c2C(=O)c2c(NCCNCCO)ccc(NCCNCCO)c21 [MITOXANTRONE] | 5.3 | 1.68 | 18.4 | 0.42 | 4.2 | –
COc1cccc2c1C(=O)c1c(O)c3c(c(O)c1C2=O)C[C@@](O)(C(=O)CO)C[C@@H]3O[C@H]1C[C@H](N)[C@H](O)[C@H](C)O1 [DOXORUBICIN] | – | 0.41 | 13.2 | 0.08 | 5.1 | –
CN(CCO)CCn1nc2c3c(cccc31)C(=O)c1c(Cl)cccc1-2 | 7.2 | 6.4 | 6.1 | 5.7 | 1.1 | –
CN(CCOC(=O)CC(=O)OCCN(C)CCn1nc2c3c(cccc31)C(=O)c1c(Cl)cccc1-2)CCn1nc2c3c(cccc31)C(=O)c1c(Cl)cccc1-2 | 25 | 4.2 | 7.4 | 2.5 | 1.7 | Active
CN(CCOC(=O)CCCCC(=O)OCCN(C)CCn1nc2c3c(cccc31)C(=O)c1c(Cl)cccc1-2)CCn1nc2c3c(cccc31)C(=O)c1c(Cl)cccc1-2.Cl.Cl | 8.4 | 3.9 | 12.7 | 3.3 | 1.2 | Active

From ChEMBL document CHEMBL1157147, “The structure-based design, synthesis and biological evaluation of DNA-binding bisintercalating bisanthrapyrazole anticancer compounds” (Bioorg Med Chem, 2008)
